Laboratory results taken from ChEMBL document CHEMBL1909046, “DrugMatrix in vitro pharmacology data”.

Legend:
[1] = molecular target: 5-hydroxytryptamine receptor 4 (Cavia porcellus, UniProt O70528); assay type: cell membranes, Dunkin-Hartley, Striatum, Membrane; note: in other assays of this panel Not Active means under 50% inhibition at 10 µM
[2] = molecular target: Matrix metalloproteinase-9 (Homo sapiens, UniProt P14780); assay type: cell-based;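 note: inhibition of isolated MMP-9 enzyme activity toward a synthetic peptide substrate, from the DrugMatrix protease screening panel; in other assays of this panel Not Active means under 50% inhibition at 10 µM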
[3] = DRUGMATRIX: ATPase, Na+/K+ enzyme inhibition (substrate: ATP); assay type: tissue-based, Sus scrofa, Heart; conditions: Not Active = under 50% inhibition at 10 µM
[4] = DRUGMATRIX: Calcium Channel Type L, Phenylalkylamine radioligand binding (ligand: [3H] (-)-Desmethoxyverapamil (D-888)); assay type: cell membranes, Rattus norvegicus, Wistar, Brain, Membrane; conditions: Not Active = under 50% inhibition at 10 µM
[5] = molecular target: Aldo-keto reductase family 1 member B1 (Rattus norvegicus, UniProt P07943); assay: biochemical; assay type: tissue-based, Lens of camera-type eye;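 note: inhibition of aldose reductase enzyme activity, measured with DL-glyceraldehyde as the substrate; in other assays of this panel Not Active means under 50% inhibition at 10 µM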
[6] = molecular target: Beta-3 adrenergic receptor (Homo sapiens, UniProt P13945); assay: DRUGMATRIX: Adrenergic beta3 radioligand binding (ligand: [125I] Cyanopindolol); assay type: cell membranes, HEK293, Membrane; conditions: Not Active = under 50% inhibition at 10 µM
[7] = DRUGMATRIX: Glutamate, AMPA radioligand binding (ligand: [3H] AMPA); assay type: cell membranes, Rattus norvegicus, Wistar, Cerebral cortex, Membrane; conditions: Not Active = under 50% inhibition at 10 µM

Beta-3 adrenergic receptor, sequence (P13945 whole entry): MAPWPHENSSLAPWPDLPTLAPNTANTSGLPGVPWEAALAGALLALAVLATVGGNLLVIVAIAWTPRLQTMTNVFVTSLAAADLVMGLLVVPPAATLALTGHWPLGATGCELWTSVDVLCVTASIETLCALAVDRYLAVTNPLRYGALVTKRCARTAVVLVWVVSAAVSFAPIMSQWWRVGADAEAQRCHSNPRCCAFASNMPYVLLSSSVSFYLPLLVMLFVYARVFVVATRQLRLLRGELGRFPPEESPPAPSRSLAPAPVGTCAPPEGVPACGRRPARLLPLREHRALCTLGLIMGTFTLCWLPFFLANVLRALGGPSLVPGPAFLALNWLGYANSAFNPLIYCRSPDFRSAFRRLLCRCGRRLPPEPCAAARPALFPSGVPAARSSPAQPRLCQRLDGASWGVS
5-hydroxytryptamine receptor 4, sequence (O70528 whole entry): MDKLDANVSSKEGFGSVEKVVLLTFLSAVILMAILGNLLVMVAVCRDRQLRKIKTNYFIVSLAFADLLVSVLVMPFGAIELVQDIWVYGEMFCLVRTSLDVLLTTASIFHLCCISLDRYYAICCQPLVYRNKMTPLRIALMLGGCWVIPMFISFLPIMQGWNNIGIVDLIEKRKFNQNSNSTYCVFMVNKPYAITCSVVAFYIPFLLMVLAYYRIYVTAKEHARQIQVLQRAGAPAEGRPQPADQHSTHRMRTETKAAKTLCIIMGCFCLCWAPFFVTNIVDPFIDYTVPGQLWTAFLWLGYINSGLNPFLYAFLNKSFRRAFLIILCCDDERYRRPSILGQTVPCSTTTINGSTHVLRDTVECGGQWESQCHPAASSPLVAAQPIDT
Matrix metalloproteinase-9, sequence (P14780 whole entry): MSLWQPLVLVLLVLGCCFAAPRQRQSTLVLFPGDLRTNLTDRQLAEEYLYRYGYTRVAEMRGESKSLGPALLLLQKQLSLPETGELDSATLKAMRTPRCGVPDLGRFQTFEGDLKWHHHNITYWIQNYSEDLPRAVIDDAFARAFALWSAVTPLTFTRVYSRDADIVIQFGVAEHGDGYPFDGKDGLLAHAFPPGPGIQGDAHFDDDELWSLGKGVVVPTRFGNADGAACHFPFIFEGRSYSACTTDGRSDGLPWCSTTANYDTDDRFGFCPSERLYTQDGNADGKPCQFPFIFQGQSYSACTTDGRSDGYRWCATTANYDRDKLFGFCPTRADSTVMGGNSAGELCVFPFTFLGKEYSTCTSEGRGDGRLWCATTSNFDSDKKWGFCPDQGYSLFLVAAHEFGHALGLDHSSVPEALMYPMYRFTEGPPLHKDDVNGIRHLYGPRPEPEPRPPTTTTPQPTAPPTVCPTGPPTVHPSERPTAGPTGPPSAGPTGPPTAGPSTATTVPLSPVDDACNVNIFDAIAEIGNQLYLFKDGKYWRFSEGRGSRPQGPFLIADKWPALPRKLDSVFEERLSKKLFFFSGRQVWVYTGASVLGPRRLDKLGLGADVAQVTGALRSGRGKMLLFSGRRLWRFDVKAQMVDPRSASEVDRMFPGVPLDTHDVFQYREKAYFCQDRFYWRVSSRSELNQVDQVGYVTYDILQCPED

Compound | IC50 [1] | IC50 [2] | IC50 [3] | Ki [3] | IC50 [4] | Ki [4] | IC50 [5] | IC50 ([6]; hek293) | IC50 [7] | Ki [7] | IC50 ([4]; read-out: IC50) [µM] | Ki ([4]; read-out: Ki) [µM] | Ki [1] | Ki [2] | Ki [5] | Ki ([6]; hek293) | IC50 ([5]; read-out: IC50) [µM] | IC50 ([6]; read-out: IC50) [µM] | Ki ([6]; read-out: Ki) [µM]
O=C(O)CCNC(=O)c1ccc(/N=N/c2ccc(O)c(C(=O)O)c2)cc1 [BALSALAZIDE] | Not Active | Not Active | Not Active | Not Active | Not Active | Not Active | Not Active | Not Active | Not Active | Not Active | – | – | – | – | – | – | – | – | –
N=C(N)c1ccc(OCCCCCOc2ccc(C(=N)N)cc2)cc1 [PENTAMIDINE] | Not Active | Not Active | Not Active | Not Active | – | – | Not Active | Not Active | Not Active | Not Active | 1.39 | 1.35 | – | – | – | – | – | – | –
CN1C(=O)CN=C(c2ccccc2)c2cc([N+](=O)[O-])ccc21 [NIMETAZEPAM] | Not Active | Not Active | Not Active | Not Active | Not Active | Not Active | Not Active | Not Active | Not Active | Not Active | – | – | – | – | – | – | – | – | –
NS(=O)(=O)c1cc(C2(O)NC(=O)c3ccccc32)ccc1Cl (centres undefined) [CHLORTHALIDONE] | Not Active | Not Active | Not Active | Not Active | Not Active | Not Active | Not Active | Not Active | Not Active | Not Active | – | – | – | – | – | – | – | – | –
CC(=O)OCC(=O)[C@@]1(O)CC[C@H]2[C@@H]3CCC4=CC(=O)CC[C@]4(C)[C@@]3(F)[C@@H](O)C[C@@]21C [FLUDROCORTISONE ACETATE] | Not Active | Not Active | Not Active | Not Active | Not Active | Not Active | Not Active | Not Active | Not Active | Not Active | – | – | – | – | – | – | – | – | –
COLISTIN | Not Active | Not Active | Not Active | Not Active | Not Active | Not Active | Not Active | Not Active | Not Active | Not Active | – | – | Not Active | Not Active | Not Active | Not Active | – | – | –
O=c1c(-c2ccc(O)cc2)coc2cc(O)cc(O)c12 [GENISTEIN] | Not Active | Not Active | Not Active | Not Active | Not Active | Not Active | – | Not Active | Not Active | Not Active | – | – | – | – | – | – | 45 | – | –
CN1C[C@@H]2C[C@H]1CN2c1cc2c(cc1F)c(=O)c(C(=O)O)cn2C1CC1 [DANOFLOXACIN] | Not Active | Not Active | Not Active | Not Active | Not Active | Not Active | Not Active | Not Active | Not Active | Not Active | – | – | – | – | – | – | – | – | –
C[C@]12C=CC(=O)C=C1CC[C@H]1[C@@H]3C[C@@H](O)[C@](O)(C(=O)CO)[C@@]3(C)C[C@H](O)[C@@]12F [TRIAMCINOLONE] | Not Active | Not Active | Not Active | Not Active | Not Active | Not Active | Not Active | Not Active | Not Active | Not Active | – | – | – | – | – | – | – | – | –
CN1CCN(c2c(F)cc3c(=O)c(C(=O)O)cn(CCF)c3c2F)CC1 [FLEROXACIN] | Not Active | Not Active | Not Active | Not Active | Not Active | Not Active | Not Active | Not Active | Not Active | Not Active | – | – | – | – | – | – | – | – | –
CC(C)(C(=O)O)c1ccc(C(O)CCCN2CCC(C(O)(c3ccccc3)c3ccccc3)CC2)cc1 (centres undefined) [FEXOFENADINE] | Not Active | Not Active | Not Active | Not Active | Not Active | Not Active | Not Active | Not Active | Not Active | Not Active | – | – | – | – | – | – | – | – | –
CC(O)(P(=O)(O)O)P(=O)(O)O [ETIDRONIC ACID] | Not Active | Not Active | Not Active | Not Active | Not Active | Not Active | Not Active | Not Active | Not Active | Not Active | – | – | – | – | – | – | – | – | –
CCOC(=O)c1ncn2c1CN(C)C(=O)c1cc(F)ccc1-2 [FLUMAZENIL] | Not Active | Not Active | Not Active | Not Active | Not Active | Not Active | Not Active | Not Active | Not Active | Not Active | – | – | – | – | – | – | – | – | –
NNCCc1ccccc1 [PHENELZINE] | Not Active | Not Active | Not Active | Not Active | Not Active | Not Active | Not Active | Not Active | Not Active | Not Active | – | – | – | – | – | – | – | – | –
COc1ccc2c(c1OC)C(=O)O[C@@H]2[C@H]1c2c(cc3c(c2OC)OCO3)CCN1C [NOSCAPINE] | Not Active | Not Active | Not Active | Not Active | Not Active | Not Active | Not Active | Not Active | Not Active | Not Active | – | – | – | – | – | – | – | – | –
COBALTOUS CHLORIDE | Not Active | Not Active | Not Active | Not Active | Not Active | Not Active | Not Active | Not Active | Not Active | Not Active | – | – | Not Active | Not Active | Not Active | Not Active | – | – | –
CC(=O)Oc1ccccc1C(=O)O [ASPIRIN] | Not Active | Not Active | Not Active | Not Active | Not Active | Not Active | Not Active | Not Active | Not Active | Not Active | – | – | – | – | – | – | – | – | –
CCN(CC)CCNC(=O)c1ccc(N)cc1 [PROCAINAMIDE] | Not Active | Not Active | Not Active | Not Active | Not Active | Not Active | Not Active | Not Active | Not Active | Not Active | – | – | – | – | – | – | – | – | –
Cc1c(O)cccc1C(=O)N[C@@H](CSc1ccccc1)[C@H](O)CN1C[C@H]2CCCC[C@H]2C[C@H]1C(=O)NC(C)(C)C | Not Active | Not Active | Not Active | Not Active | – | – | Not Active | – | Not Active | Not Active | 18.4 | 17.9 | – | – | – | – | – | 34.1 | 25.6
Cc1cccc(C)c1NC(=O)C1CCCCN1C (centres undefined) [MEPIVACAINE] | Not Active | Not Active | Not Active | Not Active | Not Active | Not Active | Not Active | Not Active | Not Active | Not Active | – | – | – | – | – | – | – | – | –
O=c1[nH]c(=O)n([C@H]2C[C@H](O)[C@@H](CO)O2)cc1F [FLOXURIDINE] | Not Active | Not Active | Not Active | Not Active | Not Active | Not Active | Not Active | Not Active | Not Active | Not Active | – | – | – | – | – | – | – | – | –
O=C(O)CC(O)(CC(=O)O)C(=O)O [CITRIC ACID] | Not Active | Not Active | Not Active | Not Active | Not Active | Not Active | Not Active | Not Active | Not Active | Not Active | – | – | – | – | – | – | – | – | –
Cc1cc(O)cc(C)c1Cl [CHLOROXYLENOL] | Not Active | Not Active | Not Active | Not Active | Not Active | Not Active | Not Active | Not Active | Not Active | Not Active | – | – | – | – | – | – | – | – | –
O=C(O)CCCc1cccs1 | Not Active | Not Active | Not Active | Not Active | Not Active | Not Active | Not Active | Not Active | Not Active | Not Active | – | – | – | – | – | – | – | – | –
CCCNC(=O)NS(=O)(=O)c1ccc(Cl)cc1 [CHLORPROPAMIDE] | Not Active | Not Active | Not Active | Not Active | Not Active | Not Active | Not Active | Not Active | Not Active | Not Active | – | – | – | – | – | – | – | – | –
CC(=O)OC[C@H]1O[C@@H](n2ncc(=O)[nH]c2=O)[C@H](OC(C)=O)[C@@H]1OC(C)=O [AZARIBINE] | Not Active | Not Active | Not Active | Not Active | Not Active | Not Active | Not Active | Not Active | Not Active | Not Active | – | – | – | – | – | – | – | – | –
NCCCNCCSP(=O)(O)O [AMIFOSTINE] | Not Active | Not Active | Not Active | Not Active | Not Active | Not Active | Not Active | Not Active | Not Active | Not Active | – | – | – | – | – | – | – | – | –
CC(C)(C)NCC(O)COc1cccc2c1CC(O)C(O)C2 (centres undefined) [NADOLOL] | Not Active | Not Active | Not Active | Not Active | Not Active | Not Active | Not Active | Not Active | Not Active | Not Active | – | – | – | – | – | – | – | – | –
